Values of other authors, collected in patent publication US9808553B2, “Haemostatic wound dressing” (Haemostatix Limited, priority 2012, dated 2017).

Biological target: fibrinogen (Homo sapiens, UniProt P02679)
Sequence (P02679 27-453): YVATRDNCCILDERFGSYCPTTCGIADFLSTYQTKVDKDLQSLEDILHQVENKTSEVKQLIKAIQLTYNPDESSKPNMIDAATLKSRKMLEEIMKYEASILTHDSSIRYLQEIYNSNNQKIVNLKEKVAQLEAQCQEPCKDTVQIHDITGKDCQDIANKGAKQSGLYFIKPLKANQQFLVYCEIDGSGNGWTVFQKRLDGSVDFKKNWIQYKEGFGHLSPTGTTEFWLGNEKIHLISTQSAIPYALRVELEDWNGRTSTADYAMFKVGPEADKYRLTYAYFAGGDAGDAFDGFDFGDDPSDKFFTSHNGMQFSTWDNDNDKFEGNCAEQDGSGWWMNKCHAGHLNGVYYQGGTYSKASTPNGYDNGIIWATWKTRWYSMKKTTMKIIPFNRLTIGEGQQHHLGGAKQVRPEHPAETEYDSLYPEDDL
Sequence (P02671 20-629 partner limits assumed): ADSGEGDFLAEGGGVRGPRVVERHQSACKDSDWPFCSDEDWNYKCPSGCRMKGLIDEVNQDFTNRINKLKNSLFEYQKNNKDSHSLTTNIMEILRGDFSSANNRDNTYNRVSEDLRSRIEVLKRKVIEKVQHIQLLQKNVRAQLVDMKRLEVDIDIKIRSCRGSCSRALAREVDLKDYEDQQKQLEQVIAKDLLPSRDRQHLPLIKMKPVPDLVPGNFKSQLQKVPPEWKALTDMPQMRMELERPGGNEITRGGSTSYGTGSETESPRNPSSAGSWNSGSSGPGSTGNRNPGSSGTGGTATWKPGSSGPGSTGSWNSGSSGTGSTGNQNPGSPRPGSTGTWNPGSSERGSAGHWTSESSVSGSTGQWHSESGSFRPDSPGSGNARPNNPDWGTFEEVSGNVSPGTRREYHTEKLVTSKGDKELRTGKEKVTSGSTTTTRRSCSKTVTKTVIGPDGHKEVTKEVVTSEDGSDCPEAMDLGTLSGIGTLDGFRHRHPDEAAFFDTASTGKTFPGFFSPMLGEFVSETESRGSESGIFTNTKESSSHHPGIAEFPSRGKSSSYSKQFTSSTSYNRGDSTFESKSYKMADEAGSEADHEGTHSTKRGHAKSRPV
Sequence (P02675 31-491 partner): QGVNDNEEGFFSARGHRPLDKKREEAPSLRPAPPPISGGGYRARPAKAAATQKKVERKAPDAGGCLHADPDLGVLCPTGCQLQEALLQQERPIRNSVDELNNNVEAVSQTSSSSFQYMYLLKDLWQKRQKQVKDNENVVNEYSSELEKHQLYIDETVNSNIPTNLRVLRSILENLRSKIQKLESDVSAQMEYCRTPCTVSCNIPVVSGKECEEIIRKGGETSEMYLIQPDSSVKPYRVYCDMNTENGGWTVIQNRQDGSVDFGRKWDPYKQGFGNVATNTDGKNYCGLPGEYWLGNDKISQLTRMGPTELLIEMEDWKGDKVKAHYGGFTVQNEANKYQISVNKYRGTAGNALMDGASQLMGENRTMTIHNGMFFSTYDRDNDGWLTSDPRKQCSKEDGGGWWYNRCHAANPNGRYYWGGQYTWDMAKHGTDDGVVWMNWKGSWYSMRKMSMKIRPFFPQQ

Affinity for fibrinogen versus natural cleaved sequence with valine at position four: higher affinity
Substance: GPRP
